Literature values as cited in US6353028B2, “Composition and method for topically treating Peyronie's Disease, Dupuytren's hand contracture, Ledderhose Fibrosis, erectile dysfunction arising from plaque accumulations, and scarring” (priority 1998, dated 2002).

Tested on: Peyronie's disease
Conditions: intra-lesional injection

COc1ccc(CCN(C)CCCC(C#N)(c2ccc(OC)c(OC)c2)C(C)C)cc1OC (stereo not shown) [Verapamil]
success of intra-lesional injections in Peyronie's disease: very limited success
